“Also recorded” adds a separate entry of the source.
What was measured:
female SD rats [1] = test: Rat femur healing of surgical wounds (micro CT); format: in vivo; set-up: wound size decreased vs control / reduction in wound size / cortical thickness increased vs control: concentration or dose not given beside the values; conditions: for cortical thickness / cortical thickness increased vs control: femur anterior hole; for cortical thickness increase: femur posterior hole; for reduction in wound size: femur posterior holes
Experimental: Rat femur—healing of surgical wounds. A surgical hole with ˜2.0 mm in diameter was generated in the left and right femurs of twenty female SD rats (˜8 weeks, body weight ˜180 g). The holes were drilled through the femur from the anterior surface to the opposite cortex (posterior surface) in the middle of the femur. During the first 5 days, 100 μl of salubrinal solution at dosage of 0.025 mg/kg was injected subcutaneously to the left limb and a PBS solution (vehicle control) in the right limb. The injection site was closed to the anterior surgical hole. Rats were sacrificed on days 10 or 20 after surgery, and the axial and transverse hole sizes as well as cortical thickness (1.5 mm proximal and distal to the center of the hole) were determined with micro CT. […] Regarding the anterior holes, the size of the wounds 10 days after surgery was smaller in the salubrinal treated group by 10.8% (1.905±0.018 mm in control and 1.700±0.021 mm in salubrinal; p<0.001). The size in 20 day samples was further decreased by 18.0% (1.812±0.017 mm in control and 1.486±0.026 mm in salubrinal; p<0.001). […] Note that the reduction in the wound size on day 20 was more significant than those on day 10 in both the anterior and posterior holes (both p<0.001) (FIG. 15B).

MC3T3 cells = test: Cell proliferation and death; format: cell-based
female SD rats [2] = test: Rat tibia healing of surgical wounds (micro CT); format: in vivo; conditions: for cortical thickness / cortical thickness elevated vs control: tibia
From the text: Rat tibia-healing of surgical wounds. Twenty female SD rats (˜8 weeks, body weight ˜180 g) received a surgical hole with ˜2.0 mm in diameter in the left and right tibiae (Zhang P., et al., Knee loading accelerates bone healing in mice, J. Bone Miner. Res. 22:1979-1987 (2007)). The hole was located on the medial surface ˜15 mm distant apart from the proximal end of the tibia (Chiba S., et al., Molecular analysis of defect healing in rat diaphyseal bone, J. Vet. Med. Sci. 63:603-606 (2001)). During the first 5 days, 100 μl of salubrinal solution at dosage of 0.025 mg/kg was injected into the left limb and a PBS solution (vehicle control) in the right limb (Wang J W, et al., Locally applied simvastatin promotes fracture healing in ovariectomized rat, Osteoporosis Int. 18:1641-1650 (2007)). Injection was subcutaneous targeted to the wound site. Rats were sacrificed on days 10 or 20 after surgery, and the axial and transverse length of the holes as well as cortical thickness (1.5 mm proximal and distal to the center of the hole) were determined with micro CT imaging (μCT-20, Scanco Medical AG).

rat brain = conditions: intra-cerebroventricular or intra-peritoneal administration; cited from earlier work
C57/BL/6 female mice = test: Mouse tibia bone formation, ankle loading plus local salubrinal; format: in vivo
Experimental: Mouse tibia-bone formation: Twenty C57/BL/6 female mice (˜8 weeks, body weight ˜18 g) were employed to examine the combined effects of ankle loading and local administration of salubrinal to the tibia (Zhang P, et al., Salubrinal stimulates anabolic responses in mouse femora, 55th Ann Meeting ORS (2009)). Local administration was targeted into a bone marrow cavity from the proximal tibia. A total volume of 20 μl PBS was injected to the left hindlimb with or without 0.025 mg/kg (100 μM) salubrinal (Calbiochem) using a micro-syringe with a 0.5-inch #26-gauge needle (Worsham D N, et al., In vivo gene transfer into adult stem cells in unconditioned mice by in situ delivery of a lentiviral vector, Mol. Ther. 14:514-24 (2006); Zhu Y, et al., eIF-2a protects brainstem motoneurons in a murine model of sleep apnea, J. Neurosci. 28:2168-78 (2008)). In examination of the combined effects of mechanical loading and salubrinal administration, ankle loading was given for 5 consecutive days after administration of salubrinal on each day. The mouse was placed in an anesthetic induction chamber to cause sedation and then mask-anesthetized using 1.5% isoflurane. With a custom-made piezoelectric mechanical loader, loads were applied to the left ankle for 5 min/day in the lateral-medial direction. The loading frequency was 5 Hz, and the peak-to-peak force was 0.5 N (FIG. 12). The right hindlimb was used as a sham-loaded control (Zhang P, et al., Joint loading-driven bone formation and signaling pathways predicted from genome-wide expression profiles, Bone 44:989-998 (2009)).

C57BL/6 mice = test: In vivo injection into intramedullary cavity of femora, BMD and BMC; set-up: species or system mouse
Experimental: Responses to Administration of Salubrinal—In vivo responses to salubrinal: In order to evaluate the effects of salubrinal in vivo, salubrinal was injected into an intramedullary cavity of the left femora of C57BL/6 mice and alterations in bone mineral density (BMD) and bone mineral content (BMC) were determined. There were 9 salubrinal treated mice as well as 9 placebo mice (injection of PBS). All mice received 4 injections of either salubrinal or PBS in the left femur, while the right femur was used as contralateral control. In four consecutive injections with a 0.5-inch #26-gauge needle and a Hamilton micro-syringe, the laterial side was used on the 1st and 3rd injetions and the medial side on the 2nd and 4th injections. An injection volume was 20 μl for salubrinal or PBS, and the salubrinal concentration was 50 μM. […] At the time of harvest (2 wks after the 1st injection), an increase in body weight in Salubrinal group (0.80±0.13 g) was higher than that in Placebo group (0.28±0.15 g; p<0.05). Harvested bone samples were analyzed with PIXImus (version 1.4, GE Medical System Lunar) for determination of BMD and BMC.

[3] = ankle loading and salubrinal injection
[4] = tibia, 0.025 mg/kg (100 μM) plus ankle loading, 5 days

O=C(/C=C/c1ccccc1)NC(NC(=S)Nc1cccc2cccnc12)C(Cl)(Cl)Cl (stereo not drawn) [salubrinal]
cortical thickness (female SD rats [1]; day 10): 0.476±0.012 mm | cortical thickness increased vs control (female SD rats [1]; day 10): 11.0% | cortical thickness (female SD rats [1]; day 20): 0.551±0.014 mm | cortical thickness increased vs control (female SD rats [1]; day 20): 25.7% | size of the wounds (female SD rats [1]; femur anterior holes, 10 days): 1.700±0.021 mm | wound size smaller vs control (female SD rats [1]; femur anterior holes, 10 days, 0.025 mg/kg s.c. first 5 days): 10.8% | size of the wounds (female SD rats [1]; femur anterior holes, 20 days): 1.486±0.026 mm | wound size decreased vs control (female SD rats [1]; femur anterior holes, 20 days): 18.0% | cortical thickness increase (female SD rats [1]; postoperative 10 days): 13.8% | cortical thickness increase (female SD rats [1]; postoperative 20 days): 21.3% | reduction in wound size (female SD rats [1]; postoperative 10 days): 4.1% | reduction in wound size (female SD rats [1]; postoperative 20 days): 11.1% | cell death (MC3T3 cells; 50 μM, no statistical difference (p>0.05)): reduced cell death | cell proliferation or death (MC3T3 cells; 10 or 50 μM for 24 h): did not alter | size of the wounds (female SD rats [2]; tibia medial cortex, day 10): 1.614±0.014 mm | wound size smaller vs control (female SD rats [2]; tibia medial cortex, day 10, 0.025 mg/kg s.c. first 5 days): 12.3% | size of the wounds (female SD rats [2]; tibia medial cortex, day 20): 1.375±0.033 mm | wound size decreased vs control (female SD rats [2]; tibia medial cortex, day 20): 19.1% | cortical thickness (female SD rats [2]; day 10): 0.434±0.006 mm | cortical thickness elevated vs control (female SD rats [2]; day 10): 11.6% | cortical thickness (female SD rats [2]; day 20): 0.537±0.005 mm | cortical thickness elevated vs control (female SD rats [2]; day 20): 20.3% | excitotoxic neuronal death in vivo (rat brain): decreased | relative increase in BMC vs ankle loading alone (C57/BL/6 female mice; [3]): 1.5 fold | relative increase in BMD vs ankle loading alone (C57/BL/6 female mice; [3]): 2.3 fold | BMC (C57/BL/6 female mice; [4]): 0.0154 ± 0.0004 g | BMD (C57/BL/6 female mice; [4]): 0.0443±0.0011 g/cm^2 | BMC vs contralateral control (C57BL/6 mice; femur, 20 μl 50 μM injection): trend to elevate; also recorded: Increased | BMD vs contralateral control (C57BL/6 mice; femur, 20 μl 50 μM injection): Increased | BMD (C57BL/6 mice; injected femur, mean±s.e.m.): 0.0456±0.0011 g/cm^2

— patent US20120295935A1, “MIXED AMINAL PHARMACEUTICAL COMPOSITIONS AND USES THEREOF” (priority 2010, published 2012)
